Measured values: US20170296566A9, “METHODS AND COMPOSITIONS FOR TREATING AND/OR PREVENTING MUCOSITIS” (GLYCOMIMETICS, INC., priority 2013, published 2017)

Target: T1, E-selectin (Homo sapiens, UniProt P16581)
T1 construct: fused on or other part: Immunoglobulin (Ig) portion fused to E-selectin as a handle for immobilisation
T1 sequence (P16581 22-175 limits assumed): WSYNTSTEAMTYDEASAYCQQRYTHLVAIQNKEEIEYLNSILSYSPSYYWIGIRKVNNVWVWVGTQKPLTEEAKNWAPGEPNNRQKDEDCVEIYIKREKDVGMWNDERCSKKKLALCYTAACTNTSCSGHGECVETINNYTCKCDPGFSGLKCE
Test: E-selectin competitive binding assay (inhibition of sLe^a binding to immobilized E-selectin/Ig chimera)
Conditions: biotinylated sLe^a polyacrylamide with streptavidin/HRP, TMB, 450 nm, read-out: IC50 (μM), E-Selectin Antagonist Activity
Experimental: The inhibition assay to screen for and characterize glycomimetic antagonists of E-selectin is a competitive binding assay, which allows the determination of IC50 values. E-selectin/Ig chimera was immobilized in 96 well microtiter plates by incubation at 37° C. for 2 hours. To reduce nonspecific binding, bovine serum albumin was added to each well and incubated at room temperature for 2 hours. The plate was washed and serial dilutions of the test compounds were added to the wells in the presence of conjugates of biotinylated, sLe^a polyacrylamide with streptavidin/horseradish peroxidase and incubated for 2 hours at room temperature.
To determine the amount of sLe^a bound to immobilized E-selectin after washing, the peroxidase substrate, 3,3′,5,5′ tetramethylbenzidine (TMB) was added. After 3 minutes, the enzyme reaction was stopped by the addition of H3PO4, and the absorbance of light at a wavelength of 450 nm was determined.
In addition to reporting the absolute IC50 value as measured above, relative IC50 values (rIC50) are determined by a ratio of the IC50 measured for the test compound to that of an internal control (reference) stated for each assay.

Row | IC50 | Structure (SMILES)
1 | < 4 µM | CCC1CC(C(=O)OC)C[C@@H](O[C@@H]2O[C@@H](CO)[C@H](O)C(O[C@@H](CC3CCCCC3)C(=O)O)C2NC(C)=O)[C@@H]1OC1O[C@@H](C)[C@H](O)C(O)[C@@H]1O (some centres unmarked) [Compound 22]
2 | < 4 µM | CCC1CC(C(=O)NCCNC(=O)c2nc(C)cs2)C[C@@H](O[C@@H]2OC(CO)[C@H](O)C(O[C@@H](CC3CCCCC3)C(=O)O)C2NC(C)=O)C1OC1O[C@@H](C)C(O)C(O)[C@@H]1O (some centres unmarked) [Compound 28]

The remaining lines, values behind:

Row | Structure (SMILES) | IC50
3 | CCC1CC(C(=O)NCCNC(=O)CCOCCOCCOCCOCCOCCOCCOCCOCCOCCOCCOCCOC)CC(OC2OC(CO)C(O)C(OC(CC3CCCCC3)C(=O)N(C)C)C2NC(C)=O)C1OC1OC(C)C(O)C(O)C1O (centres unmarked) [Compound 45] | < 4 µM
4 | CCC1CC(C(=O)NCCNC(=O)Cc2cc(=O)oc3cc(O)ccc23)C[C@@H](O[C@@H]2OC(CO)[C@H](O)C(O[C@@H](CC3CCCCC3)C(=O)O)C2NC(C)=O)C1OC1O[C@@H](C)C(O)C(O)[C@@H]1O (some centres unmarked) [Compound 29] | < 4 µM
5 | CCC1CC(C(=O)OC)C[C@@H](O[C@@H]2OC(CO)[C@H](O)C(O[C@@H](CC3CCCCC3)C(=O)O)C2NC(=O)C(F)(F)F)C1OC1O[C@@H](C)C(O)C(O)[C@@H]1O (some centres unmarked) [Compound 27] | < 4 µM
